According to patent US20250213603A1, “PHARMACEUTICAL COMPOSITION FOR TREATING CANCER” (SAGA UNIVERSITY, priority 2021, published 2025):

Tests used:
K562 [1] = experiment: Apoptosis, Annexin V/propidium iodide staining; format: cell-based; conditions: K562, 0.5, 1 and 1.5 mM, 48 hours (FIG. 5)
Protocol: (§1) The apoptosis of cells exposed to FA-HP-β-CyD was evaluated using Annexin V/propidium iodide (PI) staining as follows.
(§2) Leukemia cell lines (K562 and BV173) were used in this example. The FA-HP-β-CyD synthesized in Example 1 was used.
(§3) The apoptosis assay was performed by staining the cells with propidium iodide (PI) and Annexin V (BD Biosciences). The cells were cultured at a cell density of 4×10^5 cells/well on a 6-well plate and were incubated for 48 hours with FA-HP-β-CyD at different concentrations (0 mM (control: CT), 0.5 mM, 1 mM, and 1.5 mM). The cells were then stained with propidium iodide (PI) and Annexin V-APC (BD Biosciences) and analysis was performed using an FACSVerse flow cytometry system (BD Biosciences).

BV173 [2] = experiment: Apoptosis, Annexin V/propidium iodide staining; format: cell-based; conditions: BV173, 0.5, 1 and 1.5 mM, 48 hours (FIG. 5)
Protocol: as §1, §2, §3

[3] = test system: BV173 cells (leukemia cells); experiment: Ventricular invasion mouse model (leukemic invasion of the central nervous system); format: in vivo, BRJ mice
Protocol: Here, the effect of HP-β-CyD and FA-HP-β-CyD on leukemic central nervous system invasion was test by constructing a mouse model.
BRJ mice (female) were anesthetized (intraperitoneal administration (IP) of 100 μL of a triple anesthetic of medetomidine hydrochloride (0.75 mg/kg), mitazolam (4 mg/kg), and butorphanol tartrate (5 mg/kg)), and intrathecal transplantation was carried out, through the right coronal suture at a point 1 mm to the right of the center line defined by the sagittal suture, with a polyethylene stop tube-equipped microsyringe designed to inject BV173 cells (leukemia cells) precisely to a depth of 3 mm using a Hamilton syringe LT type needle tip style pst-3 and 25 gauge.
The FA-HP-β-CyD synthesized in Example 1 was used in this example.
The doses were set at 30 mg/kg for HP-β-CyD and 3 mg/kg for FA-HP-β-CyD by referring to the dose of HP-β-CyD for a mouse model of the hereditary lipid storage disease Niemann-Pick disease type C (NPC) (Int. J. Mol. Sci. 2021, 22, 452. https://doi.org/10.3390/ijms22010452).
Significant difference was determined as follows. That is, the data were analyzed using a two-sided Student's t-test without a comparison table. A value of P<0.05 was considered to indicate a significant difference.

[4] = test system: leukemia cell lines (K562, BV173, Ba/F3 p190, Ba/F3 p210, MYL-R, K562-IMR, and KBM5-STI); experiment: Comparison of cytotoxic activity across leukemia cell lines (MTT assay); format: cell-based; conditions: Example 3
Protocol: The proliferation inhibitory action in leukemia cell lines was evaluated using a modified dimethyl-thiazole-diphenyl-tetrazolium (MTT) assay as follows.
The hepatocyte line and leukemia cell lines (K562, BV173, Ba/F3 p190, Ba/F3 p210, MYL-R, K562-IMR, and KBM5-STI) were used in this example. The FA-HP-β-CyD synthesized in Example 1 was used.
The cell viability was evaluated using the trypan blue dye exclusion method. Cell proliferation was evaluated using a Cell Counting Kit-8 (Dojindo, Japan), which is an MTT assay. 2×10^4 of each cell was seeded with 100 μL RPMI1640 medium (Sigma-Aldrich, USA) per well to a flatbottom 96-well plate (Greiner Labortechnik, Hamburg, Germany), and incubation for 72 hours was carried out with exposure to HP-β-CyD and FA-HP-β-CyD at different concentrations (0 mM (control: CT), 0.05 mM, 0.1 mM, 0.25 mM, 0.5 mM, and 1 mM).
According to Table 1, IC50 for FA-HP-β-CyD in the leukemia cell lines (K562, BV173, Ba/F3 p190, Ba/F3 p210, MYL-R, K562-IMR, and KBM5-STI) is shown to be about ⅕ to about 1/20 of that for HP-β-CyD. […] FA-HP-β-CyD is thus shown to have a stronger cytotoxic activity than HP-β-CyD.

A549 = experiment: Proliferation inhibitory action on low folate receptor-expressing cells (MTT assay); format: cell-based, human; conditions: A549, 2.5-10 mM, 72 hours (FIG. 3)
Protocol: The proliferation inhibitory action on A549, a low folate receptor-expressing cell, was evaluated as follows.
A human non-small cell lung cancer cell line (A549) was used in this example. The FA-HP-β-CyD synthesized in Example 1 was used.
For cell proliferation, 2×10^4 cells of the […] were seeded with 100 μL DMEM medium (Sigma-Aldrich, USA) per well to a flatbottom 96-well plate (Greiner Labortechnik, Hamburg, Germany), and incubation for 72 hours was carried out with exposure to HP-β-CyD and FA-HP-β-CyD at different concentrations (0 mM (control: CT), 2.5 mM, 5 mM, 7.5 mM, and 10 mM). Evaluation was then carried out using a dimethyl-thiazole-diphenyl-tetrazolium (MTT) assay (Nacalai Tesque, Japan).

K562 [5] = experiment: Cell proliferation inhibitory action in the presence of folic acid (MTT assay); format: cell-based; conditions: K562, 5 mM, FA 2 mM, 2 hours (FIG. 4)
Protocol: (§4) The cell proliferation inhibitory action on leukemia cell lines in the presence of folic acid (FA) was evaluated as follows using the MTT assay.
as §2
(§5) 2×10^4 of each cell with 100 μL of medium was seeded per well to a flatbottom 96-well plate (Greiner Labortechnik, Hamburg, Germany), and incubation for 2 hours at 37° C. was carried out in combination with medium containing HP-β-CyD (5 mM) and FA-HP-β-CyD (5 mM) in the presence or absence of FA (2 mM). Evaluation was then carried out using a Cell Counting Kit-8 (Dojindo, Japan), which is a modified dimethyl-thiazole-diphenyl-tetrazolium (MTT) assay.
(§6) The evaluation here was carried out as follows, respectively, for the “CT” and “only FA” in FIG. 4. Thus, 2×10^4 of each cell with 100 μL of medium was seeded per well to a flatbottom 96-well plate and incubation was carried out for 2 hours at 37° C.; this was evaluated as “CT”. Incubation for 2 hours at 37° C. while exposed to only FA was evaluated as “only FA”.
(§7) Significant difference was established as follows. A two sample t-test was performed on the agents under investigation (FA-HP-β-CyD with FA, FA-HP-β-CyD without FA). A significant difference is established when p<0.05 in the comparison of the two samples.

BV173 [6] = experiment: as above; format: cell-based; conditions: BV173, 5 mM, FA 2 mM, 2 hours (FIG. 4)
Protocol: as §4, §2, §5, §6, §7

**Q.** Which results are given for “folic acid-appended hydroxypropyl-β-cyclodextrin [FA-HP-β-CyD]”?
**A.** apoptosis induction (K562 [1]): induce apoptosis in a concentration dependent manner; apoptosis induction (BV173 [2]): induce apoptosis in a concentration dependent manner; survival in two-time administration model compared with one-time administration model ([3]; FIG. 14 compared with FIG. 13, HP-β-CyD 30 mg/kg, FA-HP-β-CyD 3 mg/kg): survival was extended by one day; survival in comparison to the vehicle group and HP-β-CyD group ([3]; administered two times, first and second week after transplantation, FA-HP-β-CyD 3 mg/kg (FIG. 14)): extension of survival was confirmed; P versus the vehicle group (survival) ([3]; administered two times, first and second week, HP-β-CyD 30 mg/kg, FA-HP-β-CyD 3 mg/kg (FIG. 14)): 0.0472; survival in comparison to the vehicle group and HP-β-CyD group ([3]; single administration in the second week after ventricular transplantation, FA-HP-β-CyD 3 mg/kg (FIG. 13)): extension of survival was confirmed; P versus the vehicle group (survival) ([3]; single administration in the second week, HP-β-CyD 30 mg/kg, FA-HP-β-CyD 3 mg/kg (FIG. 13)): 0.0111; amount giving the equivalent anti-leukemia action relative to un-appended HP-β-CyD [4]: approximately one-tenth the amount; cytotoxic / antitumor activity on A549 low folate receptor-expressing cells (A549): does not exhibit an antitumor activity; antitumor activity in the presence of FA compared to without FA (K562 [5]): significantly reduced; antitumor activity in the presence of FA compared to without FA (BV173 [6]): significantly reduced
